For orientation: melting point means the temperature of the solid-liquid transition.

In patent publication US20190337924A1, “SUBSTITUTED HYDANTOIN AND THIOHYDANTOIN DERIVATIVES AS ANDROGEN RECEPTOR ANTAGONISTS” (Janssen Pharmaceutica NV, priority 2016, published 2019) one finds melting point data, which are given here for six compounds.

The structures appear in SMILES notation. Where a name gives a salt, the structure may show the parent alone.

As for `CC1(C)C(=O)N(c2ccc(C#N)c(Cl)c2)C(=S)N1c1ccc(OC2CCNCC2)cc1` (as salt: hydrochloride) [Compound 7, 2-Chloro-4-(4,4-dimethyl-5-oxo-3-(4-(piperidin-4-yloxy)phenyl)-2-thioxoimidazolidin-1-yl)benzonitrile hydrochloride], the melting point was more than 300 °C.

In turn, `CN1CCC(Oc2ccc(N3C(=S)N(c4ccc(C#N)c(Cl)c4)C(=O)C3(C)C)cc2)CC1` (as salt: hydrochloride) [Compound 8, 2-Chloro-4-(4,4-dimethyl-3-(4-((1-methylpiperidin-4-yl)oxy)phenyl)-5-oxo-2-thioxoimidazolidin-1-yl)benzonitrile hydrochloride] gave a melting point of 251.7 °C. On to `CC1(C)C(=O)N(c2ccc(C#N)c(Cl)c2)C(=S)N1c1ccc(OC2CCNCC2)nc1` (as salt: hydrochloride) [Compound 9, 2-Chloro-4-(4,4-dimethyl-5-oxo-3-(6-(piperidin-4-yloxy)pyridin-3-yl)-2-thioxoimidazolidin-1-yl)benzonitrile hydrochloride], for which the melting point was 216.5 °C. The value for `CN1CCC(Oc2ccc(N3C(=S)N(c4ccc(C#N)c(Cl)c4)C(=O)C3(C)C)cn2)CC1` (as salt: hydrochloride) [Compound 10, 2-Chloro-4-(4,4-dimethyl-3-(6-((1-methylpiperidin-4-yl)oxy)pyridin-3-yl)-5-oxo-2-thioxoimidazolidin-1-yl)benzonitrile hydrochloride] was 220.9 °C; that for `N#Cc1ccc(N2C(=O)C3(CCC3)N(c3ccc(OC4CCNCC4)nc3)C2=S)cc1Cl` (as salt: hydrochloride) [Compound 23, 2-Chloro-4-(8-oxo-5-(6-(piperidin-4-yloxy)pyridin-3-yl)-6-thioxo-5,7-diazaspiro[3.4]octan-7-yl)benzonitrile hydrochloride] was 260.1 °C; that for `CN1CCC(Oc2ccc(N3C(=S)N(c4ccc(C#N)c(Cl)c4)C(=O)C34CCC4)cn2)CC1` (as salt: hydrochloride) [Compound 24, 2-Chloro-4-(5-(6-((1-methylpiperidin-4-yl)oxy)pyridin-3-yl)-8-oxo-6-thioxo-5,7-diazaspiro[3.4]octan-7-yl)benzonitrile hydrochloride] was 239 °C.
